Results on one substance are retold here after patent US20100137344A1, “INDUCTION OF ANALGESIA IN NEUROPATHIC PAIN” (University Court of the University of Edinburgh, priority 2006, published 2010).

The subject of one series is TRPM8. In words: Antisense knockdown of TRPM8, DRG immunoblots (TRPM8:GAPDH). The note with it: for TRPM8:GAPDH ratio in DRG: intrathecal oligonucleotide infusion. Type of series: in vivo, rat. The source says: Antisense and mis-sense oligonucleotides were 22-mers with phosphorothioate bonds at the last two positions at 5′ and 3′ ends (MWG Biotech, Ebersberg, Germany). Antisense extended from base −10 to base +12 relative to the start of the open reading frame for the rat TRPM8 gene: 5′ C*T*CGAAGGACATCTTGCCGT*G*G 3′, where * represents phosphorothioate linkages. Mis-sense was designed with 4 inversions of C/G or A/T as appropriate at residues 3, 11, 14 and 22, preserving overall G/C content. BLAST searches of both oligonucleotides indicated no significant complementarity to any known gene sequence. 14-day or 7-day osmotic minipumps (for CCI experiments or naïve electrophysiology experiments respectively—Alzet Minipump, models 2002, 2001; Charles River, UK) containing oligonucleotides (1 μg/μl in sterile saline) were connected to canulae inserted under the dura of the spinal cord to level L5/6 and produced a predicted infusion rate of 0.5 μl/h. CCI surgery was performed at the same time as minipump implantation. Sensory tests were carried out to assess the time-course of behavioural sensitisation in animals which had also undergone a CCI injury. Icilin was applied topically rather than intrathecally so as to prevent any interference with the infusion canula. […]
Ipsilateral or contralateral L4-L6 dorsal root ganglia (DRG) were taken from CCI animals (n=6), and from […]. […] Blots were incubated with rabbit polyclonal antibodies to TRPM8 (either an antibody raised against TRPM8 residues 278-292 and 1090-1104 (human); 1:500; Abcam Ltd., Cambridge, UK or occasionally an antibody raised against TRPM8 residues 656-680 (rat); 1:100; Phoenix Peptides, Belmont, Calif., USA), a rabbit polyclonal antibody to TRPV1 (1:250, Chemicon International Ltd, Harrow, UK) or a mouse monoclonal antibody to glyceraldehyde-3-phosphate dehydrogenase (GAPDH, 1:750; Chemicon) and immunoreactive bands were detected by […] secondary antibody and enhanced chemiluminescence. Quantitative densitometry analysis of protein bands was performed using the ScanAnalysis (Elsevier) programme.
(In western blotting, separated proteins are transferred to a membrane and probed.)

Series [1] concerns rats with chronic constriction injury (CCI). Put plainly: Sensitivity to noxious cold (4° C. water) in CCI animals with oligonucleotide infusion. Type of series: in vivo, rat. Conditions: at peak, control CCI 8.1±0.5 s. The procedure:
Thermal sensitivity was assessed by measuring paw withdrawal latency (PWL, s) in response to a noxious thermal stimulus (Hargreaves' thermal stimulator, Linton Instrumentation, Diss, UK) directed to the hindpaw mid-plantar glabrous surface. Mechanical sensitivity was recorded as the paw withdrawal threshold (PWT, mN/mm^2) to calibrated von Frey filaments (Stoelting, Ill., US), as previously described^[39]. Sensitivity to noxious cold was assessed by placing animals in a waterbath with an aluminium floor containing 1 cm deep 4° C. water and counting the time the paw was held suspended over a 20 s period.
Antisense and mis-sense oligonucleotides were 22-mers with phosphorothioate bonds at the last two positions at 5′ and 3′ ends (MWG Biotech, Ebersberg, Germany). Antisense extended from base −10 to base +12 relative to the start of the open reading frame for the rat TRPM8 gene: 5′ C*T*CGAAGGACATCTTGCCGT*G*G 3′, where * represents phosphorothioate linkages. Mis-sense was designed with 4 inversions of C/G or A/T as appropriate at residues 3, 11, 14 and 22, preserving overall G/C content. BLAST searches of both oligonucleotides indicated no significant complementarity to any known gene sequence. […]

“5′ C*T*CGAAGGACATCTTGCCGT*G*G 3′ (antisense CTCGAAGGACATCTTGCCGTGG; linkages s2 o17 s2 (s phosphorothioate, o phosphodiester), sugars by position and methylation of C not given here) [TRPM8 antisense, 22-mer with phosphorothioate bonds, base −10 to +12 of rat TRPM8 open reading frame]”: the “TRPM8:GAPDH ratio in DRG” value in the series with TRPM8 (contralateral to CCI) turned out to be 14.9±2.1%; with TRPM8 (ipsilateral to CCI), 19.8±2.2%. In addition, the “knockdown of the 128 kDa TRPM8 band in DRG” value in the series with TRPM8 (naïve rats, intrathecal delivery over 5 days) was “almost complete knockdown”. Further, in series [1], the “elevation of the paw ipsilateral to nerve injury out of 4° C. water” value was found to be 7.6 ± 0.6 s.
